Where a name gives a salt, the structure may show the parent alone.
These molecules were tested against T1, recombinant human ALX receptor (Homo sapiens, UniProt P25090) (assay: Intracellular calcium measurements (FLIPR), ALX receptor agonistic activity). Details: HEK293-hALXR-Gα16 cells, Fluo-4 calcium signal, normalized to WKYMVm 10 nM.
T1 construct: expressed in transfected cells; host or cells: HEK293 (HEK293-hALXR-Gα16)
T1 sequence (P25090 1-351): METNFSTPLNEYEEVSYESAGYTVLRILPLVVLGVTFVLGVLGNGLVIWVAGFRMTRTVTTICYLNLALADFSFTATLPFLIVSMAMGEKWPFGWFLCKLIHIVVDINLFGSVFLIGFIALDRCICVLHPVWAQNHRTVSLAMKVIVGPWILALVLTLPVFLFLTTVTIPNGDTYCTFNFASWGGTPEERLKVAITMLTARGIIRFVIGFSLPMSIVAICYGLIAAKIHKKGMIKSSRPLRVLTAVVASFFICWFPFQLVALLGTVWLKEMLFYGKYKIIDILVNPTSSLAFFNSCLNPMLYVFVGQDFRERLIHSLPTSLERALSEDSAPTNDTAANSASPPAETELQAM
Assay type: cell-based
Outline: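 HEK293 cells co-expressing human ALX receptor and Gα16 were loaded with 1 μM Fluo-4 AM for 60 min at 37° C., then exposed to serially diluted compounds on FLIPR Tetra. Peak fluorescence above baseline (ex 488/em 540 nm) was normalized to 10 nM WKYMVm as high control.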

Question: How did the EC50 turn out when COC[C@@H](NC(=O)N[C@H](Cc1ccc(OC)cc1)c1nc2ccccc2[nH]1)c1ccccc1 [Example 200, 1-((R)-1-(1H-Benzo[d]imidazol-2-yl)-2-(4-methoxyphenyl)ethyl)-3-((S)-2-methoxy-1-phenylethyl)urea] was run?
Answer: 0.053 µM

Question: For COc1ccc(CC(NC(=O)Nc2cc(C3CC3)nn2-c2ccccc2)c2nc3ccccc3[nH]2)cc1 (stereo not drawn) [Example 405, 1-(1-(1H-benzo[d]imidazol-2-yl)-2-(4-methoxyphenyl)ethyl)-3-(3-cyclopropyl-1-phenyl-1H-pyrazol-5-yl)urea], which EC50 is on record?
Answer: 0.032 µM

Question: CC(C)(C)c1ccc(CC(NC(=O)N[C@H]2CC[C@H](O)CC2)c2nc3ccccc3[nH]2)cc1 (relative stereo) [Example 79, 1-(1-(1H-Benzo[d]imidazol-2-yl)-2-(4-(tert-butyl)phenyl)ethyl)-3-(trans-4-hydroxycyclohexyl)urea] was tested. Which EC50 did it give?
Answer: 0.707 µM

Question: O=C(NC(Cc1ccc(Br)cc1F)c1nc2ccccc2[nH]1)N[C@H]1CC[C@H](O)CC1 (relative stereo) [Example 188, 1-(1-(1H-Benzo[d]imidazol-2-yl)-2-(4-bromo-2-fluorophenyl)ethyl)-3-(trans-4-hydroxycyclohexyl)urea] was tested. Which EC50 did it give?
Answer: 0.0037 µM

Question: For COc1ccc(CC(NC(=O)NCc2cc(C3CC3)on2)c2nc3ccccc3[nH]2)cc1 (stereo not drawn) [Example 380, 1-(1-(1H-Benzo[d]imidazol-2-yl)-2-(4-methoxyphenyl)ethyl)-3-((5-cyclopropylisoxazol-3-yl)methyl)urea], which EC50 is on record?
Answer: 1.09 µM

Question: Which EC50 does the source give for COC(=O)C1CCCC(NC(=O)N[C@H](Cc2ccc(OC)cc2)c2nc3ccccc3[nH]2)C1 (stereo partly drawn) [Example 228, Methyl 3-(3-((R)-1-(1H-benzo[d]imidazol-2-yl)-2-(4-methoxyphenyl)ethyl)ureido)cyclohexanecarboxylate] here?
Answer: 0.011 µM

Question: How did the EC50 turn out when COc1ccc(C[C@@H](NC(=O)NCc2ccn(-c3ccccc3)n2)c2nc3ccccc3[nH]2)cc1 [Example 284, (R)-1-(1-(1H-Benzo[d]imidazol-2-yl)-2-(4-methoxyphenyl)ethyl)-3-((1-phenyl-1H-pyrazol-3-yl)methyl)urea] was run?
Answer: 0.353 µM

Question: How did the EC50 turn out when COc1ccc(CC(NC(=O)N[C@H]2CC[C@H](O)CC2)c2nc3cc(C(F)(F)F)ccc3[nH]2)cc1 (relative stereo) [Example 82, 1-(trans-4-Hydroxycyclohexyl)-3-(2-(4-methoxyphenyl)-1-(5-(trifluoromethyl)-1H-benzo[d]imidazol-2-yl)ethyl)urea] was run?
Answer: 0.0023 µM

Question: COc1ccc(C[C@@H](NC(=O)N[C@H](C)c2ccc(OC)cc2)c2nc3ccccc3[nH]2)cc1 [Example 336, 1-((R)-1-(1H-Benzo[d]imidazol-2-yl)-2-(4-methoxyphenyl)ethyl)-3-((R)-1-(4-methoxyphenyl)ethyl)urea] was tested. Which EC50 did it give?
Answer: 0.248 µM

Question: For COc1ccc(C[C@@H](NC(=O)NCc2ccc(CN(C)C)cc2)c2nc3ccccc3[nH]2)cc1 [Example 272, (R)-1-(1-(1H-Benzo[d]imidazol-2-yl)-2-(4-methoxyphenyl)ethyl)-3-(4-((dimethylamino)methyl)benzyl)urea], which EC50 is on record?
Answer: 0.339 µM

Question: COc1ccc(C[C@@H](NC(=O)N[C@@H](C)c2ccc(Br)cc2)c2nc3ccccc3[nH]2)cc1 [Example 331, 1-((R)-1-(1H-Benzo[d]imidazol-2-yl)-2-(4-methoxyphenyl)ethyl)-3-((S)-1-(4-bromophenyl)ethyl)urea] was tested. Which EC50 did it give?
Answer: 0.146 µM

Question: COc1ccc(CC(NC(=O)Nc2ccnn2Cc2ccccc2)c2nc3ccccc3[nH]2)cc1 (stereo not drawn) [Example 415, 1-(1-(1H-benzo[d]imidazol-2-yl)-2-(4-methoxyphenyl)ethyl)-3-(1-benzyl-1H-pyrazol-5-yl)urea] was tested. Which EC50 did it give?
Answer: 0.101 µM

Question: Which EC50 does the source give for COc1ccc(CC(NC(=O)N[C@@H](C)c2cccc(Cl)c2)c2nc3ccccc3[nH]2)cc1 (stereo partly drawn) [Example 360, 1-(1-(1H-Benzo[d]imidazol-2-yl)-2-(4-methoxyphenyl)ethyl)-3-((S)-1-(3-chlorophenyl)ethyl)urea] here?
Answer: 0.561 µM

Question: With COc1ccc(CC(NC(=O)Nc2cc(-c3ccc(OC)cc3)n[nH]2)c2nc3ccccc3[nH]2)cc1 (stereo not drawn) [Example 404, 1-(1-(1H-benzo[d]imidazol-2-yl)-2-(4-methoxyphenyl)ethyl)-3-(3-(4-methoxyphenyl)-1H-pyrazol-5-yl)urea] as the molecule, how does the EC50 read?
Answer: 0.158 µM

Question: With COc1ccc(CC(NC(=O)NCc2cnc3ccccn23)c2nc3ccccc3[nH]2)cc1 (stereo not drawn) [Example 51, 1-(1-(1H-Benzo[d]imidazol-2-yl)-2-(4-methoxyphenyl)ethyl)-3-(imidazo[1,2-a]pyridin-3-ylmethyl)urea] as the molecule, how does the EC50 read?
Answer: 0.99 µM

Question: Which EC50 does the source give for COc1ccc(C[C@@H](NC(=O)N[C@@H](C)c2ccc(OC)cc2)c2nc3ccccc3[nH]2)cc1 [Example 330, 1-((R)-1-(1H-Benzo[d]imidazol-2-yl)-2-(4-methoxyphenyl)ethyl)-3-((S)-1-(4-methoxyphenyl)ethyl)urea] here?
Answer: 0.205 µM

Question: With COc1ccc(CC(NC(=O)N[C@H]2CC[C@H](O)CC2)c2nc3ccccc3[nH]2)c(F)c1F (single isomer, unassigned; ent-1) [Example 365, 1-(1-(1H-Benzo[d]imidazol-2-yl)-2-(2,3-difluoro-4-methoxyphenyl)ethyl)-3-(trans-4-hydroxycyclohexyl)urea (ent-1)] as the molecule, how does the EC50 read?
Answer: 0.0017 µM

Question: With COc1ccc(CC(NC(=O)N[C@H]2CC[C@H](O)CC2)c2nc3ccc(F)cc3[nH]2)c(F)c1 (single isomer, unassigned; ent-1) [Example 260, 1-(1-(6-Fluoro-1H-benzo[d]imidazol-2-yl)-2-(2-fluoro-4-methoxyphenyl)ethyl)-3-(trans-4-hydroxycyclohexyl)urea (ent-1)] as the molecule, how does the EC50 read?
Answer: 0.0004 µM

Question: COC(=O)N1CC2CCC1CN2C(=O)N[C@H](Cc1ccc(OC)cc1)c1nc2ccccc2[nH]1 (stereo partly drawn) [Example 162, Methyl 5-(((R)-1-(1H-benzo[d]imidazol-2-yl)-2-(4-methoxyphenyl)ethyl)carbamoyl)-2,5-diazabicyclo[2.2.2]octane-2-carboxylate] was tested. Which EC50 did it give?
Answer: 0.866 µM

Question: Which EC50 does the source give for O=C(NC(Cc1ccc(C(F)F)cc1)c1nc2ccccc2[nH]1)N[C@H]1CC[C@H](O)CC1 (single isomer, unassigned; ent-2) [Example 369, 1-(1-(1H-Benzo[d]imidazol-2-yl)-2-(4-(difluoromethyl)phenyl)ethyl)-3-(trans-4-hydroxycyclohexyl)urea (ent-2)] here?
Answer: 0.0072 µM

Question: For COc1ccc(CC(NC(=O)NC2CCC(CO)CC2)c2nc3ccccc3[nH]2)cc1 (stereo not drawn) [Example 74, 1-(1-(1H-Benzo[d]imidazol-2-yl)-2-(4-methoxyphenyl)ethyl)-3-(4-(hydroxymethyl)cyclohexyl)urea], which EC50 is on record?
Answer: 0.013 µM

Question: How did the EC50 turn out when COc1ccc(C[C@@H](NC(=O)NCCc2ccc(OC)cn2)c2nc3ccccc3[nH]2)cc1 [Example 296, (R)-1-(1-(1H-Benzo[d]imidazol-2-yl)-2-(4-methoxyphenyl)ethyl)-3-(2-(5-methoxypyridin-2-yl)ethyl)urea] was run?
Answer: 0.227 µM

Question: How did the EC50 turn out when COc1ccc(C[C@@H](NC(=O)NC2CCCCCC2)c2nc3ccccc3[nH]2)cc1 [Example 99, (R)-1-(1-(1H-Benzo[d]imidazol-2-yl)-2-(4-methoxyphenyl)ethyl)-3-cycloheptylurea] was run?
Answer: 0.057 µM

Question: With COc1ccc(C[C@@H](NC(=O)NCc2cccc(C)c2)c2nc3ccccc3[nH]2)cc1 [Example 276, (R)-1-(1-(1H-Benzo[d]imidazol-2-yl)-2-(4-methoxyphenyl)ethyl)-3-(3-methylbenzyl)urea] as the molecule, how does the EC50 read?
Answer: 0.229 µM

Question: With COc1ccc(C[C@@H](NC(=O)NCCC2CCCN2C)c2nc3ccccc3[nH]2)cc1 (stereo partly drawn) [Example 65, 1-((R)-1-(1H-Benzo[d]imidazol-2-yl)-2-(4-methoxyphenyl)ethyl)-3-(2-(1-methylpyrrolidin-2-yl)ethyl)urea dihydrochloride] as the molecule, how does the EC50 read?
Answer: 0.29 µM

Question: CC1(O)CCC(NC(=O)NC(Cc2ccc(Br)cc2F)c2nc3ccccc3[nH]2)CC1 (single isomer, unassigned; ent-1) [Example 264, 1-(1-(1H-Benzo[d]imidazol-2-yl)-2-(4-bromo-2-fluorophenyl)ethyl)-3-(trans-4-hydroxy-4-methylcyclohexyl)urea (ent-1)] was tested. Which EC50 did it give?
Answer: 0.009 µM

Question: How did the EC50 turn out when COc1ccc(C[C@@H](NC(=O)NCCC2CCN(C)CC2)c2nc3ccccc3[nH]2)cc1 [Example 160, (R)-1-(1-(1H-Benzo[d]imidazol-2-yl)-2-(4-methoxyphenyl)ethyl)-3-(2-(1-methylpiperidin-4-yl)ethyl)urea] was run?
Answer: 0.151 µM

Question: With O=C(N[C@H](Cc1ccc(Br)cc1)c1nc2ccc(C(F)(F)F)cc2[nH]1)N[C@H]1CC[C@H](O)CC1 [Example 222, 1-((R)-2-(4-Bromophenyl)-1-(6-(trifluoromethyl)-1H-benzo[d]imidazol-2-yl)ethyl)-3-(trans-4-hydroxycyclohexyl)urea] as the molecule, how does the EC50 read?
Answer: 0.0078 µM

Question: How did the EC50 turn out when COc1ccc(C[C@@H](NC(=O)N2CCN(C(=O)OC(C)(C)C)CC2)c2nc3ccccc3[nH]2)cc1 [Example 130, (R)-tert-Butyl 4-((1-(1H-benzo[d]imidazol-2-yl)-2-(4-methoxyphenyl)ethyl)carbamoyl)piperazine-1-carboxylate] was run?
Answer: 1.06 µM

Question: For O=C(NC(Cc1ccc(C(F)(F)F)cc1F)c1nc2cc(F)ccc2[nH]1)N[C@H]1CC[C@H](O)CC1 (single isomer, unassigned; ent-1) [Example 363, 1-(1-(5-Fluoro-1H-benzo[d]imidazol-2-yl)-2-(2-fluoro-4-(trifluoromethyl)phenyl)ethyl)-3-(trans-4-hydroxycyclohexyl)urea (ent-1)], which EC50 is on record?
Answer: 0.0056 µM
